Results from patent US20240238266A1 (Novartis AG, priority 2021, published 2024).

Key:
[1] = test system: organic anion-transporting polypeptide (OATP) hepatic uptake transporter; assay: Preclinical studies of systemic disposition: hepatic uptake transporter; type: in vitro ADME
Source text: In addition, some contribution from direct kidney (approximately 20%) and direct biliary excretion (around 5 to 10%) is anticipated. Iptacopan is also a substrate for the organic anion-transporting polypeptide (OATP) hepatic uptake transporter. […] Typical examples are digoxin, quinidine, paclitaxel, fentanyl and phenytoin. However, if no alternative treatment is available, a staggered dosing approach is recommended (refer to Section 6.2.1.1). • · Concomitant medication listed under exclusion criteria 25 and 26 is prohibited except for the condition specified in the criterion.

AP activity (Wieslab) = assay: First in human (FIH) studies: suppression of AP activity (Wieslab); type: in vivo
[2] = Human absorption, distribution, metabolism, and excretion (ADME) study in healthy volunteers; type: in vivo
[3] = Food effect in study CLNP023X2101; type: in vivo
AP = details: multiple in vitro and in vivo non-clinical studies (Schubart 2019); cited from earlier work

CCO[C@H]1CCN(Cc2c(OC)cc(C)c3[nH]ccc23)[C@H](c2ccc(C(=O)O)cc2)C1 [iptacopan, 4-((2S,4S)-(4-ethoxy-1-((5-methoxy-7-methyl-1H-indol-4-yl)methyl)piperidin-2-yl))benzoic acid]
substrate of OATP hepatic uptake transporter [1]: substrate | inhibition of the AP (Wieslab assay) predicted by exposure-response model (AP activity (Wieslab); about 200 mg b.i.d, in most participants, model developed with FIH data in healthy volunteers): > 90% | suppression of the AP (inhibition), sustained (AP activity (Wieslab); over 14 days of dosing at 200 mg b.i.d): ≥ 80% | inhibition of AP activity (Wieslab) (AP activity (Wieslab); two hours post-dose, single dose of 200 mg, FIH study participants): ≥ 80% | direct kidney excretion, share of overall iptacopan dose [2]: 20-25% | kidney contribution to the overall iptacopan clearance [2]: 20-25% | food effect [3]: no food effect | inhibition of the AP (AP): demonstrated inhibition of the AP
